In US20100298285A1, “Biclycloheteroaryl Compounds as P2x7 Modulators and Uses Thereof” (priority 2006, published 2010):

Test system: IL-1β release, THP-1 cells
Assay: IL-1β release assay in differentiated THP-1 cells stimulated with BzATP (Example 9)
Assay type: cell-based
Conditions: Homo sapiens; for inhibition at 0.1 µM: 0.1 μM compound ("*" symbols); for inhibition at 0.1 µM / inhibition at 0.3 µM: differentiated THP-1 cells, 250 uM BzATP, read-out: IL-1β% Inhib. @ 0.3 or 0.1 μM; for inhibition at 0.3 µM: 0.3 μM compound ("+" symbols); for IC50: THP-1 cells, BzATP 250 uM, four parameter logistic fit
Method: THP-1 cells (ATCC Cat # 285-IF-100) are plated in 96 well plates at a concentration of 200,000 cells per well and allowed to differentiate in RPMI-1640 media (ATCC Cat # 30-2001) containing 10% FBS, 100 IU/mL penicillin, 100 ug/mL streptomycin, 100 ng/mL LPS and 100 ng/mL IFN-γ for 16 hours. Following differentiation, the cells are treated for an additional 2 hours in RPMI-1640 media containing 100 IU/mL penicillin, 100 ug/mL streptomycin and fresh LPS at 100 ng/mL. The cells are then pretreated for 30 minutes with the compound of interest at the appropriate concentration in RPMI media containing 100 IU/mL penicillin, 100 ug/mL streptomycin. Following the pretreatment 2′,3′-O-(4-benzoylbenzoyl)-adenosine 5′-triphosphate (Sigma Aldrich Cat # B6396) is added to a final concentration of 250 uM and the cells are incubated for an additional 45 minutes. 30 uL of cell supernatant is then collected and IL-1β levels determined via ELISA (R&D systems Cat. # HSLB50) according to manufacturer's recommendations using the Tecan Safire plate reader. Background adjusted IL-1β levels of drug treated and non-treated cells are used to calculate the percent inhibition.
The following compounds have been or can be prepared according to the synthetic methods described above. For the purpose of Table 1 below, activity of each compound, which can be determined using the IL-1β assay method described in Example 9, is expressed as follows: […]
The compounds set forth in Table 1 were tested for activity in a cellular model as described herein. Specifically, cells were pretreated with differing amounts of the compound under test and released IL-1β determined as in Example 9, above. Measurements were made and IC50 values, presented in Table 2, below, were determined by fitting the data to a four parameter logistic equation using GraphPad Prism software (GraphPad Software, Inc). The equation may be expressed by the following formula:
Y=Bottom+(Top−Bottom)/(1+10̂((Log EC50−X)*HillSlope))
Where X is the logarithm of concentration, Y is the response and Y starts at Bottom and goes to Top with a sigmoid shape.

| IC50 [nM] | Structure (SMILES) | inhibition at 0.1 µM [%] | inhibition at 0.3 µM [%] |
| --- | --- | --- | --- |
| – | O=C(Cc1ccc(C(F)(F)F)cc1)Nc1c(Cl)ccc2c1CCN(S(=O)(=O)c1ccc(F)c(F)c1)C2 [Compound 3005] | 0 to 25 | – |
| – | COc1cc(OC)cc(C(=O)N2CCc3c(ccc(Cl)c3NC(=O)Cc3cccc(C(F)(F)F)c3F)C2)c1 [Compound 3149] | – | 26 to 50 |
| – | Cc1ccc(F)c(C(=O)N2CCc3c(ccc(Cl)c3NC(=O)Cc3ccc(C(F)(F)F)c(F)c3)C2)c1Cl [Compound 3107] | – | 0 to 25 |
| > 1000 | O=C(Cc1ccc(C(F)(F)F)c(F)c1)Nc1cccc2c1CCN(C(=O)C1COc3ccccc3O1)C2 (centres unmarked) [Compound 3036] | – | 0 to 25 |
| – | N#Cc1ccc(C(=O)N2CCc3c(ccc(Cl)c3NC(=O)Cc3ccc(C(F)(F)F)c(F)c3)C2)cc1 [Compound 3098] | – | 0 to 25 |
| – | O=C(Cc1ccc(C(F)(F)F)c(F)c1)Nc1c(Cl)ccc2c1CCN(C(=O)Cc1ccc(F)cc1)C2 [Compound 3083] | – | 0 to 25 |
| 206 | O=C(Cc1ccc(C(F)(F)F)c(F)c1)Nc1cccc2c1CCN(CC(O)c1ccc(F)cc1)C2 (centres unmarked) [Compound 3065, N-{2-[2-(4-Fluoro-phenyl)-2-hydroxy-ethyl]-1,2,3,4-tetrahydro-isoquinolin-5-yl}-2-(3-fluoro-4-trifluoromethyl-phenyl)-acetamide] | – | 51 to 75 |
| – | O=C(Cc1ccc(C(F)(F)F)c(F)c1)Nc1c(Cl)ccc2c1CCN(C(=O)c1ccc(Cl)c(Cl)c1)C2 [Compound 3086] | – | 0 to 25 |
| 428 | O=C(Cc1ccc(C(F)(F)F)c(F)c1)Nc1cccc2c1CCN(CC(O)CCl)C2 (centres unmarked) [Compound 3057, N-[2-(3-Chloro-2-hydroxy-propyl)-1,2,3,4-tetrahydro-isoquinolin-5-yl]-2-(3-fluoro-4-trifluoromethyl-phenyl)-acetamide] | – | 26 to 50 |
| – | COc1cc(OC)cc(C(=O)N2CCc3c(ccc(Cl)c3NC(=O)Cc3ccc(C(F)(F)F)c(F)c3)C2)c1 [Compound 3087] | – | 0 to 25 |
| – | O=C(Cc1ccc(C(F)(F)F)c(F)c1)Nc1c(Cl)ccc2c1CCN(C(=O)Cc1ccc(Cl)cc1)C2 [Compound 3105] | – | 26 to 50 |
| – | O=C(Cc1cccc(C(F)(F)F)c1F)Nc1c(Cl)ccc2c1CCN(C(=O)c1ccc(-c3ccccc3)cc1)C2 [Compound 3142] | – | 0 to 25 |
| 64.2 | O=C(Cc1ccc(C(F)(F)F)c(F)c1)Nc1cccc2c1CCN(C(=O)C1COc3ccccc3C1)C2 (centres unmarked) [Compound 3040] | – | ≥ 76 |
| 82.5 | O=C(Cc1ccc(C(F)(F)F)c(F)c1)Nc1cccc2c1CCN(C(=O)CC1CCCCCC1)C2 [Compound 3043] | – | ≥ 76 |
| – | O=C(Cc1cccc(C(F)(F)F)c1F)Nc1c(Cl)ccc2c1CCN(C(=O)Cc1ccc(Cl)cc1)C2 [Compound 3168] | – | 0 to 25 |
| – | COc1ccccc1C(=O)N1CCc2c(ccc(Cl)c2NC(=O)Cc2ccc(C(F)(F)F)c(F)c2)C1 [Compound 3120] | – | 0 to 25 |
| 61.9 | Cc1ccc2c(c1NC(=O)Cc1ccc(C(F)(F)F)c(F)c1)CCN(C(=O)CCC1CCCCC1)C2 [Compound 3251] | – | – |
| – | COc1cccc(S(=O)(=O)N2CCc3c(ccc(Cl)c3NC(=O)Cc3ccc(C(F)(F)F)cc3)C2)c1 [Compound 3030] | 0 to 25 | – |
| – | COc1cccc(C(=O)N2CCc3c(ccc(Cl)c3NC(=O)Cc3cccc(C(F)(F)F)c3F)C2)c1 [Compound 3153] | – | 0 to 25 |
| 243 | COc1ccc2c(c1NC(=O)Cc1ccc(C(F)(F)F)c(F)c1)CCN(C(=O)C1CC1)C2 [Compound 3475] | – | – |
| 52.5 | Cc1ccc2c(c1NC(=O)Cc1ccc(C(F)(F)F)c(F)c1)CCN(C(=O)C1CC1)C2 [Compound 3469] | – | – |
| – | COc1ccc(OC)c(CC(=O)N2CCc3c(ccc(Cl)c3NC(=O)Cc3ccc(C(F)(F)F)c(F)c3)C2)c1 [Compound 3081] | – | 0 to 25 |
| 261 | Cc1ccc2c(c1NC(=O)Cc1ccc(C(F)(F)F)c(F)c1)CCN(C(=O)C1(C)CC1)C2 [Compound 3471] | – | – |

| IC50 [nM] | Structure (SMILES) | inhibition at 0.1 µM [%] | inhibition at 0.3 µM [%] |
| --- | --- | --- | --- |
| – | O=C(Cc1ccc(C(F)(F)F)c(F)c1)Nc1c(Cl)ccc2c1CCN(C(=O)CCC1CCCC1)C2 [Compound 3075] | – | 0 to 25 |
| 673 | CCCC(O)CN1CCc2c(cccc2NC(=O)Cc2ccc(C(F)(F)F)c(F)c2)C1 (centres unmarked) [Compound 3063] | – | 26 to 50 |
| – | CCC(=O)N1CCc2c(ccc(Cl)c2NC(=O)Cc2cccc(C(F)(F)F)c2F)C1 [Compound 3138] | – | 0 to 25 |
| – | O=C(Cc1ccc(C(F)(F)F)cc1)Nc1c(Cl)ccc2c1CCN(S(=O)(=O)c1cc(Cl)cc(Cl)c1)C2 [Compound 3015] | 0 to 25 | – |
| 425 | O=C(Cc1ccc(C(F)(F)F)c(F)c1)Nc1cccc2c1CCN(CC(O)Cc1ccccc1)C2 (centres unmarked) [Compound 3257] | – | – |
| – | O=C(Cc1ccc(C(F)(F)F)cc1)Nc1c(Cl)ccc2c1CCN(S(=O)(=O)c1cc(C(F)(F)F)ccc1Cl)C2 [Compound 3022] | 0 to 25 | – |
| – | Cc1ccc(F)c(C(=O)N2CCc3c(ccc(Cl)c3NC(=O)Cc3cccc(C(F)(F)F)c3F)C2)c1Cl [Compound 3171] | – | 0 to 25 |
| – | CC(C)CC(=O)N1CCc2c(ccc(Cl)c2NC(=O)Cc2cccc(C(F)(F)F)c2F)C1 [Compound 3158] | – | 0 to 25 |
| – | O=C(Cc1ccc(C(F)(F)F)cc1)Nc1c(Cl)ccc2c1CCN(S(=O)(=O)c1ccc(F)cc1Cl)C2 [Compound 3017] | 0 to 25 | – |
| – | Cc1cc(C(=O)N2CCc3c(ccc(Cl)c3NC(=O)Cc3cccc(C(F)(F)F)c3F)C2)no1 [Compound 3180] | – | 0 to 25 |
| – | O=C(Cc1cccc(C(F)(F)F)c1F)Nc1c(Cl)ccc2c1CCN(C(=O)c1ccccc1)C2 [Compound 3137] | – | 0 to 25 |
| – | CC(=O)N1CCc2c(ccc(Cl)c2NC(=O)Cc2cccc(C(F)(F)F)c2F)C1 [Compound 3136] | – | 0 to 25 |
| – | O=C(Cc1ccc(C(F)(F)F)cc1)Nc1c(Cl)ccc2c1CCN(S(=O)(=O)c1cc(F)cc(F)c1)C2 [Compound 3006] | 0 to 25 | – |
| – | Cc1ccc(C(=O)N2CCc3c(ccc(Cl)c3NC(=O)Cc3cccc(C(F)(F)F)c3F)C2)cc1 [Compound 3183] | – | 0 to 25 |
| – | O=C(Cc1cccc(C(F)(F)F)c1F)Nc1c(Cl)ccc2c1CCN(C(=O)c1ccc(C(F)(F)F)cc1F)C2 [Compound 3169] | – | 0 to 25 |
| – | O=C(Cc1cccc(C(F)(F)F)c1F)Nc1c(Cl)ccc2c1CCN(C(=O)c1ccccc1F)C2 [Compound 3178] | – | 0 to 25 |
| – | O=C(Cc1cccc(C(F)(F)F)c1F)Nc1c(Cl)ccc2c1CCN(C(=O)c1ccncc1)C2 [Compound 3190] | – | 0 to 25 |
| – | CC(C)(C)c1ccc(C(=O)N2CCc3c(ccc(Cl)c3NC(=O)Cc3ccc(C(F)(F)F)c(F)c3)C2)cc1 [Compound 3124] | – | 0 to 25 |
| – | O=C(Cc1ccc(C(F)(F)F)c(F)c1)Nc1c(Cl)ccc2c1CCN(C(=O)c1ccc(-c3ccccc3)cc1)C2 [Compound 3077] | – | 0 to 25 |
| – | Cc1cccc(C(=O)N2CCc3c(ccc(Cl)c3NC(=O)Cc3cccc(C(F)(F)F)c3F)C2)c1 [Compound 3140] | – | 0 to 25 |
| 890 | O=C(Cc1ccc(C(F)(F)F)c(F)c1)Nc1cccc2c1CCN(C(=O)COC1CCNCC1)C2 [Compound 3052] | – | 0 to 25 |
| – | COc1ccc(C(=O)N2CCc3c(ccc(Cl)c3NC(=O)Cc3cccc(C(F)(F)F)c3F)C2)cc1 [Compound 3141] | – | 0 to 25 |
| 83 | Cc1ccc2c(c1NC(=O)Cc1ccc(C(F)(F)F)c(F)c1)CCN(S(=O)(=O)C(C)C)C2 [Compound 3414] | – | – |
